Reference: the NIST ThermoML archive (doi:10.1021/je800155q)
± gives the expanded uncertainty stated by the source.

Tests used:
[1] = molar enthalpy of vaporization or sublimation; details: 298.15 K, Calvet Microcalorimeter
[2] = Crystal; DTA

Row | SMILES | molar enthalpy ([1]; Liquid) | molar enthalpy ([1]; Crystal) | Normal melting temperature [2]
1 | CC(C)(C)c1cccc(C(C)(C)C)n1 [2,6-di-tert-butylpyridine] | 13.5 ± 0.574 kcal/mol |  | 
2 | CC(C)(C)c1ccncc1 [4-(1,1-dimethylethyl)pyridine] | 13 ± 0.621 kcal/mol |  | 
3 | CC(C)(C)c1cc(C(C)(C)C)nc(C(C)(C)C)c1 [pyridine, 2,4,6-tris(1,1-dimethylethyl)-] |  | 18.7 ± 0.813 kcal/mol | 68 ± 2 °C
